Results on 25 compounds are retold here after patent US11447503B2, “Pyridine carbamates and their use as GLUN2B receptor modulators” (JANSSEN PHARMACEUTICA NV, priority 2019, dated 2022).

Sequence of human GluN1/GluN2B NMDA receptors (Q13224 27-1484, other chains not shown): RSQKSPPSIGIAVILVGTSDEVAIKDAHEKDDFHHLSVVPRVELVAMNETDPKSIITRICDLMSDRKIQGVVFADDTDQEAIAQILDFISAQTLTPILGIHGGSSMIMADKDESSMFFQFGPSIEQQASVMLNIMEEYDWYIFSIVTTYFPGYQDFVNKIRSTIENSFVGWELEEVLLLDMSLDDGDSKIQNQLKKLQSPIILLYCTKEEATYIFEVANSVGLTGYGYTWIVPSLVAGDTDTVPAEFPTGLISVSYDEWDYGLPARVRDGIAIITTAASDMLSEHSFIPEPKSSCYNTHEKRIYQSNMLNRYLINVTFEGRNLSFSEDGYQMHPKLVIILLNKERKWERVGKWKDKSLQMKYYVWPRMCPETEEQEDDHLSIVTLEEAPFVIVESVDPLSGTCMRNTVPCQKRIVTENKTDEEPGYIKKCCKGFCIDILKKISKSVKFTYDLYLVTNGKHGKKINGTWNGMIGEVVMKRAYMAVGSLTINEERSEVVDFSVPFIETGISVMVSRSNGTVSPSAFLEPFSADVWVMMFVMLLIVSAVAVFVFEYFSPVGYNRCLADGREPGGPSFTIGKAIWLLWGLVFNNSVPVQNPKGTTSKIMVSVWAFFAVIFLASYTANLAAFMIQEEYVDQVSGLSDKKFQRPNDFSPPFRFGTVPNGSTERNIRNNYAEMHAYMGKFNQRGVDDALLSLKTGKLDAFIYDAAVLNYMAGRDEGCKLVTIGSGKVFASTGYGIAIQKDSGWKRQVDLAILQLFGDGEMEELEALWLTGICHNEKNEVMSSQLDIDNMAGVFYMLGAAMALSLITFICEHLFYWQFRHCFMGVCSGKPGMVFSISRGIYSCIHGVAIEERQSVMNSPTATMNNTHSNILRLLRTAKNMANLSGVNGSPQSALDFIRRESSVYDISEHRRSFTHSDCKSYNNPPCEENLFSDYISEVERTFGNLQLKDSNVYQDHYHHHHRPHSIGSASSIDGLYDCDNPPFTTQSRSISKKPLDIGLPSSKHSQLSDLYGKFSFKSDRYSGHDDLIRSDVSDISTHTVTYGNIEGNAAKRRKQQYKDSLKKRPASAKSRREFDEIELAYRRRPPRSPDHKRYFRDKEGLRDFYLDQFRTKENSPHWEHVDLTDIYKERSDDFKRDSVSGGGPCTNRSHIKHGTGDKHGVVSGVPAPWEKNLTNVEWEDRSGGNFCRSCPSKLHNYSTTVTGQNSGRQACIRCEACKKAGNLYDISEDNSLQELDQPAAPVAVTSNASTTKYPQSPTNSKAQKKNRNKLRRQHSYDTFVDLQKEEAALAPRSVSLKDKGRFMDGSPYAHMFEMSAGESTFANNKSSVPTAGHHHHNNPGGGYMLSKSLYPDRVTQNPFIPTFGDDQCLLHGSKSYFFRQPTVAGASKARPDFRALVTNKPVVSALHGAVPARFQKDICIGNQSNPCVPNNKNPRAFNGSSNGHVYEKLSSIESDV

In the test the target is human GluN1/GluN2B NMDA receptors (Homo sapiens, UniProt Q05586+Q13224). Description: Cell-based calcium flux (FLIPR) assay on cloned human GluN1/GluN2B ion channels expressed in mammalian cells. The following applies: standard assay; glutamate ~EC40, 10 μM glycine; stable Tet-On cell line. A digest of the protocol:
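Tet-On-induced stable cells expressing human GluN1/GluN2B, Calcium 5 dye. Compounds preincubated 5 min (agonist check), then glutamate at ~EC40 plus 10 μM glycine added for 5 min; Mg2+ and buffer composition differ between standard and HTS formats. FLIPR Tetra fluorescence normalised to control wells; (+)MK-801 as antagonist control.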
The term IC50 denotes the midpoint of a concentration-inhibition curve. Take `O=C1OCCN1Cc1cc(-c2ccc(F)c(C(F)F)c2)cnc1C(F)F` [Example 124, 3-[[2-(Difluoromethyl)-5-[3-(difluoromethyl)-4-fluoro-phenyl]-3-pyridyl]methyl]oxazolidin-2-one]: the IC50 worked out at 56 nM.

`O=C1OCCN1Cc1cc(-c2ccc(F)c(OC(F)F)c2)cnc1C(F)F` [Example 125, 3-[[5-[3-(Difluoromethoxy)-4-fluoro-phenyl]-2-(difluoromethyl)-3-pyridyl]methyl]oxazolidin-2-one]: the IC50 was 39 nM.

For the compound `O=C1OCCCN1Cc1cc(-c2ccc(F)c(OC(F)F)c2)cnc1C(F)F` [Example 126, 3-[[5-[3-(Difluoromethoxy)-4-fluoro-phenyl]-2-(difluoromethyl)-3-pyridyl]methyl]-1,3-oxazinan-2-one], the half-maximal inhibitory concentration (IC50) is 19 nM.

Take `Cc1cc(-c2cnc(C(F)F)c(CN3CCCOC3=O)c2)ccc1F` [Example 127, 3-[[2-(Difluoromethyl)-5-(4-fluoro-3-methyl-phenyl)-3-pyridyl]methyl]-1,3-oxazinan-2-one]: the IC50 stood at 276 nM.

With `Cc1cc(-c2cnc(C(F)F)c(CN3CCOC3=O)c2)ccc1F` [Example 128, 3-[[2-(Difluoromethyl)-5-(4-fluoro-3-methyl-phenyl)-3-pyridyl]methyl]oxazolidin-2-one], the IC50 is 204 nM.

Turning to `O=C1OCCCN1Cc1cc(-c2ccc(Cl)c(OC(F)F)c2)cnc1C(F)F` [Example 129, 3-[[5-[4-Chloro-3-(difluoromethoxy)phenyl]-2-(difluoromethyl)-3-pyridyl]methyl]-1,3-oxazinan-2-one], the IC50 was 59 nM.

With `O=C1OCCN1Cc1cc(-c2ccc(Cl)c(OC(F)F)c2)cnc1C(F)F` [Example 130, 3-[[5-[4-Chloro-3-(difluoromethoxy)phenyl]-2-(difluoromethyl)-3-pyridyl]methyl]oxazolidin-2-one], the IC50 was determined as 30 nM.

With `O=C1OCCN1Cc1cc(-c2ccc(F)c(C(F)F)c2)cnc1OC(F)F` [Example 131, 3-[[2-(Difluoromethoxy)-5-[3-(difluoromethyl)-4-fluoro-phenyl]-3-pyridyl]methyl]oxazolidin-2-one], the IC50 was 153 nM.

In the case of `C[C@@H]1COC(=O)N1Cc1cc(-c2ccc(F)c(C(F)F)c2)cnc1OC(F)F` [Example 132, (4R)-3-[[2-(Difluoromethoxy)-5-[3-(difluoromethyl)-4-fluoro-phenyl]-3-pyridyl]methyl]-4-methyl-oxazolidin-2-one], the 50% inhibitory concentration (IC50) is 176 nM.

On to `O=C1OCCN1Cc1cc(-c2ccc(F)c(OC(F)F)c2)cnc1OC(F)F` [Example 133, 3-[[2-(Difluoromethoxy)-5-[3-(difluoromethoxy)-4-fluoro-phenyl]-3-pyridyl]methyl]oxazolidin-2-one], for which the IC50 stood at 76 nM.

With `C[C@@H]1COC(=O)N1Cc1cc(-c2ccc(F)c(OC(F)F)c2)cnc1OC(F)F` [Example 134, (4R)-3-[[-(Difluoromethoxy)-5-[3-(difluoromethoxy)-4-fluoro-phenyl]-3-pyridyl]methyl]-4-methyl-oxazolidin-2-one], the IC50 amounted to 61 nM.

With `CC(F)(F)c1ncc(-c2ccc(F)c(C(F)F)c2)cc1CN1CCOC1=O` [Example 135, 3-[[2-(1,1-Difluoroethyl)-5-[3-(difluoromethyl)-4-fluoro-phenyl]-3-pyridyl]methyl]oxazolidin-2-one], the IC50 stood at 47 nM.

For `CC(F)(F)c1ncc(-c2ccc(F)c(C(F)F)c2)cc1CN1CCCOC1=O` [Example 136, 3-[[2-(1,1-Difluoroethyl)-5-[3-(difluoromethyl)-4-fluoro-phenyl]-3-pyridyl]methyl]-1,3-oxazinan-2-one], the IC50 came to 99 nM.

`CC(F)(F)c1ncc(-c2ccc(F)c(OC(F)F)c2)cc1CN1CCCOC1=O` [Example 137, 3-[[2-(1,1-Difluoroethyl)-5-[3-(difluoromethoxy)-4-fluoro-phenyl]-3-pyridyl]methyl]-1,3-oxazinan-2-one]: the IC50 is 76 nM.

In the case of `CC(F)(F)c1ncc(-c2ccc(F)c(C(F)F)c2)cc1CN1CC2(CCC2)OC1=O` [Example 138, 6-[[2-(1,1-Difluoroethyl)-5-[3-(difluoromethyl)-4-fluoro-phenyl]-3-pyridyl]methyl]-8-oxa-6-azaspiro[3.4]octan-7-one], the IC50 was 549 nM.

Take `C[C@@H]1CN(Cc2cc(-c3ccc(F)c(C(F)F)c3)cnc2C(C)(F)F)C(=O)O1` [Example 139, (5R)-3-[[2-(1,1-Difluoroethyl)-5-[3-(difluoromethyl)-4-fluoro-phenyl]-3-pyridyl]methyl]-5-methyl-oxazolidin-2-one]: the IC50 worked out at 134 nM.

For the compound `C[C@H]1CN(Cc2cc(-c3ccc(F)c(C(F)F)c3)cnc2C(C)(F)F)C(=O)O1` [Example 140, (5S)-3-[[2-(1,1-Difluoroethyl)-5-[3-(difluoromethyl)-4-fluoro-phenyl]-3-pyridyl]methyl]-5-methyl-oxazolidin-2-one], the IC50 amounted to 111 nM.

With `CC(F)(F)c1ncc(-c2ccc(F)c(C(F)F)c2)cc1CN1CC2(CC2)OC1=O` [Example 141, 5-[[2-(1,1-Difluoroethyl)-5-[3-(difluoromethyl)-4-fluoro-phenyl]-3-pyridyl]methyl]-7-oxa-5-azaspiro[2.4]heptan-6-one], the IC50 came out at 245 nM.

On to `C[C@H]1COC(=O)N1Cc1cc(-c2ccc(F)c(C(F)F)c2)cnc1C(C)(F)F` [Example 142, (4S)-3-[[2-(1,1-Difluoroethyl)-5-[3-(difluoromethyl)-4-fluoro-phenyl]-3-pyridyl]methyl]-4-methyl-oxazolidin-2-one], for which the IC50 came to 2000 nM.

Consider `C[C@@H]1COC(=O)N1Cc1cc(-c2ccc(F)c(C(F)F)c2)cnc1C(C)(F)F` [Example 143, (4R)-3-[[2-(1,1-Difluoroethyl)-5-[3-(difluoromethyl)-4-fluoro-phenyl]-3-pyridyl]methyl]-4-methyl-oxazolidin-2-one], for which the IC50 was 180 nM.

On to `C[C@@H]1COC(=O)N1Cc1cc(-c2ccc(F)c(OC(F)F)c2)cnc1C(C)(F)F` [Example 144, (4R)-3-[[2-(1,1-Difluoroethyl)-5-[3-(difluoromethoxy)-4-fluoro-phenyl]-3-pyridyl]methyl]-4-methyl-oxazolidin-2-one], for which the IC50 came to 157 nM.

For the compound `C[C@H]1COC(=O)N1Cc1cc(-c2ccc(F)c(OC(F)F)c2)cnc1C(C)(F)F` [Example 145, (4S)-3-[[2-(1,1-Difluoroethyl)-5-[3-(difluoromethoxy)-4-fluoro-phenyl]-3-pyridyl]methyl]-4-methyl-oxazolidin-2-one], the IC50 is 492 nM.

For the compound `CC(F)(F)c1ncc(-c2ccc(F)c(OC(F)F)c2)cc1CN1CC2(CC2)OC1=O` [Example 146, 5-[[2-(1,1-Difluoroethyl)-5-[3-(difluoromethoxy)-4-fluoro-phenyl]-3-pyridyl]methyl]-7-oxa-5-azaspiro[2.4]heptan-6-one], the IC50 worked out at 212 nM.

`CC(F)(F)c1ncc(-c2ccc(F)c(OC(F)F)c2)cc1CN1CC2(CCC2)OC1=O` [Example 147, 6-[[2-(1,1-Difluoroethyl)-5-[3-(difluoromethoxy)-4-fluoro-phenyl]-3-pyridyl]methyl]-8-oxa-6-azaspiro[3.4]octan-7-one]: the IC50 was found to be 392 nM.

Take `C[C@H]1CN(Cc2cc(-c3ccc(F)c(OC(F)F)c3)cnc2C(C)(F)F)C(=O)O1` [Example 148, (5S)-3-[[2-(1,1-Difluoroethyl)-5-[3-(difluoromethoxy)-4-fluoro-phenyl]-3-pyridyl]methyl]-5-methyl-oxazolidin-2-one]: the IC50 was 147 nM.
